According to PMC12339163, “Combining Plant Bioactives With Antibiotics for Enhanced Antibiofilm Activity Against Uropathogenic Staphylococcus spp. and Cytotoxicity Evaluation” (Advances in Pharmacological and Pharmaceutical Sciences, 2025):

Assays:
Assay type in all cases: cell-based
[1] = tested on: Raw 264.7 macrophages; test: Cytotoxicity, MTT assay; conditions: Mus musculus, RAW264.7, 48 h, Raw 264.7, MTT, read-out: IC50
Protocol: (§1) Two cell lines, including Raw 264.7 macrophages and the urinary epithelial cell line UROtsa obtained from the American Type Culture Collection (Rockville, MD, USA), were used. They were cultured in Dulbecco's modified Eagle's medium (DMEM), which was supplemented with 10% fetal bovine serum (FBS) and 1% penicillin, streptomycin, and fungizone (PSF). They were then grown at 37°C in a humidified environment containing 5% CO2.
(§2) The cytotoxicity of the selected synergistic combinations, as well as the individual constituents of combinations, against the abovementioned cell lines was performed by the MTT assay as previously described. Briefly, cells from each line were harvested in the logarithmic phase using trypsin (0.05% trypsin, 0.02% EDTA in PBS). Cell suspension was diluted with an appropriate growth medium to obtain a cell density of 10^4 cells/well. A 100 µL aliquot of each suspension was seeded into 96-well cell culture plates and incubated at 37°C in an atmosphere of 5% CO2 and 95% relative humidity. After 24 h of incubation, 100 µL of samples (ATBs and NPs) at concentrations varying from 0.01, 0.1, 1, 10, 100, and 1000, as well as the synergistic combinations (C1 to C5), was added to the wells containing the cells. Doxorubicin was used as a positive control. Appropriate controls with an equivalent concentration of DMSO were also included. Plates were incubated for 48 h, then the medium in each well was aspirated, and MTT solution (2 mg/mL in PBS) was diluted 1:10 with fresh medium and added to each well, and the plates were further incubated at 37°C for 4 h. Absorbance was measured on a BioTek microplate reader at 570 nm. The percentage of cell viability was calculated by comparing treated and untreated cells using the equation [39]:(3) cell viability %=ODtest/ODcontrol×100.
(§3) Then, the IC50 values of the samples having shown at least 50% inhibition were calculated by plotting the percentage of inhibition against the concentrations.

[2] = tested on: UROtsa urinary epithelial cells; test: Cytotoxicity, MTT assay; conditions: Epithelial cell, 48 h, read-out: IC50
Protocol: as §1, §2, §3

[3] = tested on: Staphylococcus saprophyticus biofilm; test: Checkerboard combination assay, biofilm eradication; conditions: S. saprophyticus biofilm eradication; natural product alone; mean MBEC
Protocol: (§4) The effect of the combination of ATBs with NPs on the preformed biofilm was evaluated by determining the FICI, as described above for biofilm formation, with slight modifications. After biofilm formation for 24 h, the plate was gently emptied and washed three times with PBS. Then, 50 µL of ATBs and 50 µL of NPs were introduced to the plate. The final concentration ranges from 0.0625 to 128 µg/mL and from 4 to 512 µg/mL for ATBs and NPs, respectively, and is incubated at 37°C for 24 h. After incubation, the medium was gently removed, and the plate was washed three times with PBS. At the end of the incubation time, the MTT reduction assay was performed, and the MBEC was determined. To assess the effect of the combination, the FICI was calculated and interpreted as described above.

[4] = tested on: Staphylococcus epidermidis biofilm; test: as above; conditions: S. epidermidis biofilm eradication; natural product alone; mean MBEC
Protocol: as §4

SMILES: COc1cccc2c1C(=O)c1c(O)c3c(c(O)c1C2=O)C[C@@](O)(C(=O)CO)C[C@@H]3O[C@H]1C[C@H](N)[C@H](O)[C@H](C)O1 [Doxorubicin, doxorubicin]
- IC50 [1]: 1.26 µg/mL
- IC50 [2]: 1.58 µg/mL

SMILES: O=c1c(O)c(-c2ccc(O)c(O)c2)oc2cc(O)cc(O)c12 [Quer]
- MBEC Alone NPs [3]: 256 µg/mL
- MBEC Alone NPs [4]: 170.66 µg/mL
